Results as given in ChEMBL document CHEMBL1135841, “Use of parallel-synthesis combinatorial libraries for rapid identification of potent FKBP12 inhibitors” (Bioorg Med Chem Lett, 2002).

target: Peptidyl-prolyl cis-trans isomerase FKBP1A (Homo sapiens, UniProt P62942); assay: Inhibition of peptidyl-prolyl isomerase (PPIase, or rotamase) activity of FK506 binding protein 12
Sequence (P62942 whole entry): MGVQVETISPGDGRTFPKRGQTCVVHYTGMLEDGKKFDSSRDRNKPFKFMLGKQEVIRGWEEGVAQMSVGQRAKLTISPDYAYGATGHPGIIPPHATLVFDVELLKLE

SMILES	Ki [µM]
O=C(OCCc1ccccc1)[C@@H]1CCCN1C(=S)NC12C[C@H]3C[C@@H](C1)C[C@@H](C2)C3	47
O=C(OCCCCc1ccccc1)[C@@H]1CCCN1C(=O)NC12C[C@H]3C[C@@H](C1)C[C@@H](C2)C3	0.47
Cc1ccc(S(=O)(=O)N2CCCCC2C(=O)OCCCc2ccc(Cl)cc2)cc1 (stereo not given)	4.4
O=C(OCCCc1ccc(Br)cc1)C1CCCCN1S(=O)(=O)Cc1ccccc1 (stereo not given)	2.7
C[C@@H](NC(=O)N1CCC[C@H]1C(=O)OCCCc1ccc(Br)cc1)c1ccccc1	> 10
O=C(OCCCc1ccc(F)cc1)[C@@H]1CCCN1/C(S)=N/C12C[C@H]3C[C@@H](C1)C[C@@H](C2)C3	0.85
COc1cc(CCCOC(=O)C2CCCCN2S(=O)(=O)Cc2ccccc2)cc(OC)c1 (stereo not given)	0.12
C[C@@H](NC(=O)N1CCC[C@H]1C(=O)OCCCc1ccc(F)cc1)c1ccccc1	4.4
O=C(OCCCc1ccc(F)cc1)C1CCCCN1S(=O)(=O)c1ccccc1 (stereo not given)	0.74
O=C(OCCCc1ccccc1)[C@@H]1CCCN1C(=O)Nc1ccccc1	0.82
O=C(OCc1ccccc1)[C@@H]1CCCN1C(=O)Nc1ccccc1	24
O=C(OCCCc1ccc(Cl)cc1)C1CCCCN1S(=O)(=O)Cc1ccccc1 (stereo not given)	0.42
O=C(OCCCc1ccc(F)cc1)C1CCCCN1S(=O)(=O)Cc1ccccc1 (stereo not given)	0.32
COc1ccc(CCCOC(=O)C2CCCCN2S(=O)(=O)Cc2ccccc2)cc1 (stereo not given)	0.092
COc1ccc(CCCOC(=O)C2CCCCN2S(=O)(=O)c2ccccc2)cc1 (stereo not given)	0.26
O=C(OCCCc1ccccc1)[C@@H]1CCCN1C(=O)NC12C[C@H]3C[C@@H](C1)C[C@@H](C2)C3	1
O=C(OCCCc1ccc(Cl)cc1)C1CCCCN1S(=O)(=O)c1ccccc1 (stereo not given)	3.8
COc1ccc(CCCOC(=O)[C@@H]2CCCN2/C(S)=N/C2CCCCC2)cc1OC	0.086
O=C(OCCCc1ccc(Cl)cc1)[C@@H]1CCCN1C(=O)NC12C[C@H]3C[C@@H](C1)C[C@@H](C2)C3	2.3
COc1ccc(CCCOC(=O)C2CCCCN2S(=O)(=O)Cc2ccccc2)cc1OC (stereo not given)	0.047

SMILES	Ki [µM]
O=C(OCCCCc1ccccc1)[C@@H]1CCCN1C(=S)NC12C[C@H]3C[C@@H](C1)C[C@@H](C2)C3	7.2
O=C(OCCCc1ccc(F)cc1)[C@@H]1CCCN1C(=O)NC12C[C@H]3C[C@@H](C1)C[C@@H](C2)C3	1.2
C[C@@H](NC(=O)N1CCC[C@H]1C(=O)OCCCc1ccc(Cl)cc1)c1ccccc1	6
O=C(OCCCc1ccccc1)[C@@H]1CCCN1C(=S)NC12C[C@H]3C[C@@H](C1)C[C@@H](C2)C3	5.2
O=C(OCCCc1ccc(Br)cc1)C1CCCCN1S(=O)(=O)c1ccccc1 (stereo not given)	8
O=C(OCCc1ccccc1)[C@@H]1CCCN1C(=O)NC12C[C@H]3C[C@@H](C1)C[C@@H](C2)C3	1.3
COc1cc(CCCOC(=O)C2CCCCN2S(=O)(=O)c2ccccc2)cc(OC)c1 (stereo not given)	0.48
O=C(OCCCc1ccc(Cl)cc1)[C@@H]1CCCN1C(=S)NC12C[C@H]3C[C@@H](C1)C[C@@H](C2)C3	1.5
COc1ccc(CCCOC(=O)C2CCCCN2C(=O)NC23CC4CC(CC(C4)C2)C3)c(OC)c1 (stereo not given)	0.012
O=C(OCCCc1ccc(Br)cc1)[C@@H]1CCCN1C(=S)NC12C[C@H]3C[C@@H](C1)C[C@@H](C2)C3	6.3
O=C(OCc1ccccc1)[C@@H]1CCCN1C(=O)NC12C[C@H]3C[C@@H](C1)C[C@@H](C2)C3	2.1
O=C(OCCCc1ccc(Br)cc1)[C@@H]1CCCN1C(=O)NC12C[C@H]3C[C@@H](C1)C[C@@H](C2)C3	3.1
COc1ccc(CCCOC(=O)C2CCCCN2S(=O)(=O)c2ccccc2)cc1OC (stereo not given)	0.18
COc1ccc(CCCOC(=O)C2CCCCN2S(=O)(=O)c2ccc(C)cc2)cc1 (stereo not given)	0.22
Cc1ccc(S(=O)(=O)N2CCCCC2C(=O)OCCCc2ccc(F)cc2)cc1 (stereo not given)	1.4
O=C(OCCc1ccccc1)[C@@H]1CCCN1C(=O)Nc1ccccc1	1.3
COc1cc(CCCOC(=O)C2CCCCN2S(=O)(=O)c2ccc(C)cc2)cc(OC)c1 (stereo not given)	0.4
O=C(OCc1ccccc1)[C@@H]1CCCN1C(=S)NC12C[C@H]3C[C@@H](C1)C[C@@H](C2)C3	18
COc1ccc(CCCOC(=O)[C@@H]2CCCN2S(=O)(=O)Cc2ccccc2)cc1	0.022
COc1ccc(CCCOC(=O)C2CCCCN2C(=O)NC23CC4CC(CC(C4)C2)C3)cc1OC (stereo not given)	0.032
